This note sets out measurements from article PMC4906375, “Contribution of Amphipathicity and Hydrophobicity to the Antimicrobial Activity and Cytotoxicity of β-Hairpin Peptides” (ACS Infectious Diseases, 2016).

A short description of data set [1]: Cytotoxicity, Alamar Blue (resazurin) assay. Particulars: human. Format: cell-based, human. How it is done: Cytotoxicity to HEK293 and HepG2 cells was determined using the Alamar Blue (resazurin) assay,[55],[56] with 24 h of incubation and either 1 or 10% serum concentration. Full assay details are included in the Supporting Information.
Cytotoxicity. Cytotoxicity to HEK293 and HepG2 cells was determined using the Alamar Blue (resazurin) assay,3, 4 For the assays supplemented with 1 % FBS as final concentration the cells were seeded one day prior to the assay (3,000 per 20 µL for HEK293 and 4,000 per 20 µL for HepG2) with DMEM + 2 % FBS. The compounds were prepared as described below, using DMEM with no FBS instead to give the final FBS concentration of 1 %.
The highest concentration the compounds were tested was 300 µg/mL. A dilution series of 1:3 fold steps in DMEM (GIBCOPInvitrogen, cat. no. 11995P073) + 10 % FBS was created (concentration range of 600 µg/mL – 0.28 µg/mL), and 20 µL of these 2x concentrated compound dilutions were added in duplicates to wells of a black wall, clear bottom 384Pwells cell culture plate. For the assays with 1 % FBS the compounds in 0 % FBS were added to the existing cell plates in 2 % FBS. 200 µM Tamoxifen (Sigma T5648) served as negative control and in addition a serial dilution of tamoxifen, starting at 200 µM (74 µg/mL), was included as a dose response control (1 in 2 dilution series for tamoxifen). For the assay with 10 % FBS, HepG2 cells were seeded at 5000 cells per well, in a volume of 20 µL in DMEM medium + 10 % of FBS and added to the 20 µL of compound solution (total volume of 40 µL), resulting in a final compound concentration range of 300 µg/mL to 0.14 µg/mL.
Cells were incubated together with the compounds for 20 h at 37 °C, 5 % CO2.
After the incubation, 5 µL of 100 µM (25 µg/mL) resazurin dissolved in PBS (final concentration was approximately 11 µM) was added to each well. The plates were then incubated for 3 h at 37 °C, 5 % CO2. The fluorescence intensity was read using the TECAN Infinite M1000 PRO with excitation/emission 560/590. The data was analysed by Graph Pad Prism software. Results are presented as the average percentage of control ± SD for each set of duplicate wells using the following equation: Cell survival % = (FISAMPLE – FINegative/FIUNTREATED –FINegative)*100. (100 µg/mL tamoxifen was set as 0 % survival, media
On the technique in general: Resazurin is reduced to fluorescent resorufin, in cell work by metabolically active cells.

Another data set has as its system human erythrocytes. The following applies: red cells of human, 3 h.
Data set [2] concerns E. coli ATCC 25922 cytoplasmic membrane. The following applies: not told.
Data set [3] has the same test system. The experiment in a line: Inner membrane permeability measured by SYTOX green fluorescence emission. Particulars: SYTOX green, E. coli ATCC 25922, 1 h.
The next data set concerns K. pneumoniae ATCC 13883. Format: cell-based, Klebsiella pneumoniae. Particulars: ATCC 13883. As for the experimental part:
(§1) Both antibacterial and antifungal MIC assays were performed by a broth microdilution plate based method as per CLSI guidelines for antimicrobial susceptibility testing.[53],[54] […] Full assay details are included in the Supporting Information with a full list of strains tested in Table S1.
(§2) Antibacterial assay (Minimum Inhibitory Concentration [MIC]).
(§3) MIC assay was performed by a broth microdilution plate based method as per CLSI guidelines for antimicrobial susceptibility testing of aerobic bacteria.1 Compounds were prepared at 1.28 mg/mL solution in water. The tested strains, Table S1, were cultured in Luria broth (LB) (In Vitro Technologies, USB75852), at 37 °C overnight. A sample of culture was then diluted 40Pfold in fresh Muller Hinton broth (MHB) (Bacto laboratories, 211443) and incubated at 37 °C for 1.5P2 h. The compounds were serially diluted twoPfold across the wells, with compound concentrations ranging from 0.015 µg/mL to 512 µg/mL, plated in duplicate. The resultant midPlog phase cultures were diluted to the final concentration of 1×10^6 CFU/mL, then 50 µL was added to each well of the compoundP containing 96Pwell plates (Corning 3641, NonPbinding Surface [NBS]), giving a final compound concentration range of 0.008 µg/mL to 256 µg/mL and 5x10^5 CFU/mL. All the plates were covered and incubated at 37 °C for 18 h. MICs were determined visually, being defined as the lowest concentration showing no visible growth. Resazurin was added at 0.001% final concentration to each well and incubated for 2 h before MICs were rePread for confirmation using the colour change from blue to pink to indicate wells containing viable cells. The resazurin assay was added in some wells where some form of precipitate was present in otherwise clear wells, making it difficult to ascertain which wells had visible […]
(§4) Antifungal assay (Minimum Inhibitory Concentration [MIC]). MIC assay was performed by a broth microdilution plate based method as per CLSI guidelines for antimicrobial susceptibility testing.2 Fungi strains, Table S1, were cultured for 3 days on Yeast ExtractPPeptone Dextrose (YPD) (SigmaPAldrich, Y1500) agar at 30 °C. A yeast suspension of 1x10^6 to 5x10^6 CFU/mL was prepared from five colonies. These stock suspensions were diluted with Yeast Nitrogen Base (YNB) (Becton Dickinson, 233520) broth to a final concentration of 2.5 ×10^3 CFU/mL. All samples, compounds and standards were plated in 96Pwell plates (Corning 3641, NonPbinding Surface [NBS]), by adding 10 µL of 1.28 mg/mL stock solution to each well and 90 µL of media. Then, the samples were serial diluted (1:2) in 12 concentrations across the plate. The standard antifungal ranged from 256

Data set [4] in a line: Plasma protein binding, ultrafiltration. Format: in vitro ADME. The following applies: 100% human plasma, read-out: PPB (%) (converted). How it is done: Plasma protein binding was performed using an ultrafiltration method.[58]
Plasma protein binding assay
Plasma protein binding was performed using an Ultrafiltration method.13 Fresh frozen human plasma was pooled from O Negative (Product number 1274512) blood from the R & D division of the Australian Red Cross Blood Services (Brisbane). Stock solutions (20 mg/mL) of the test compounds were prepared in H2O. Test compounds (40 µg/mL) were incubated in 100 % human plasma at 37 °C for 30 min (1 mL volume). For unfiltered samples, an aliquot (50 µL) was removed, diluted with PBS (50 µL) and quenched with icePcold precipitating solution comprising 0.5 µM carbutamide MS internal standard in acetonitrile : methanol : formic acid (1: 1 : 0.001). Samples were incubated at 4 °C for 30 min then centrifuged at 14000 × g for 8 min, with the clear supernatant transferred to a vial for LC/MS/MS analysis.
For filtered samples, the plasma sample (250 µL) was filtered using Amicon UltraP0.5 Centrifugal Filter Devices 30K NMWL at 14000 × g for 7 min and then an aliquot (50 µL) was processed as described for unfiltered samples. The fraction of unbound compound was calculated by determining the concentration of the filtered sample and the concentration of unfiltered sample. All samples were performed in triplicate with sulfamethoxazole as a […]

The next data set deals with A. baumannii ATCC 19606. Format: cell-based, Acinetobacter baumannii. Particulars: ATCC 19606. How it is done:
as §1, §2, §3, §4

For data set [5] the following is noted: hemolysis (%) at 300 μg/mL, human erythrocytes, 3 h, relative to 100% hemolysis by 1% Triton X-100.
Data set [6] relates to E. coli ATCC 25922 (control strain). Format: cell-based, Escherichia coli. Particulars: ATCC 25922. How it is done:
as §1, §2, §3, §4

For data set [7], the system named is E. coli ATCC 700926 (K12). Format: cell-based, Escherichia coli. The following applies: ATCC 700926. How it is done: as §1, §2, §3, §4
Another data set deals with B. subtilis ATCC 6051. Description: microbe, parasite or virus in culture. Format: cell-based, Bacillus subtilis. The following applies: ATCC 6051. How it is done: as §1, §2, §3, §4
Another data set concerns P. aeruginosa ATCC 27853. Format: cell-based, Pseudomonas aeruginosa. The following applies: ATCC 27853. How it is done:
as §1, §2, §3, §4

SMILES strings stand for the structures. ≈ marks a conversion by molar mass, not a printed value. Where two headings read alike, the source gives them in different places.

With `CC(C)C[C@H](NC(=O)[C@H](CCCNC(=N)N)NC(=O)CNC(=O)CNC(=O)[C@@H](N)CCCNC(=N)N)C(=O)N[C@H]1CSSC[C@@H](C(=O)N[C@H](C(=O)NCC(=O)N[C@@H](CCCNC(=N)N)C(N)=O)C(C)C)NC(=O)[C@H](C(C)C)NC(=O)[C@@H]2CSSC[C@H](NC(=O)[C@H](Cc3ccc(O)cc3)NC1=O)C(=O)N[C@@H](CCCNC(=N)N)C(=O)N[C@@H](CCCNC(=N)N)C(=O)N[C@@H](CCCNC(=N)N)C(=O)N[C@@H](Cc1ccccc1)C(=O)N2` [protegrin-1], the CC50 at 24 h in data set [1] (HEK293 cells, HEK293, 1% FBS, read-out: cytotoxicity HEK293 1% FBS) is 19.6 ± 1.2 µg/mL (≈ 9.09 µM); in data set [1] (HEK293 cells, HEK293, 10% FBS, read-out: cytotoxicity HEK293 10% FBS), 93.9 ± 1.1 µg/mL (≈ 43.6 µM); in data set [1] (HepG2 cells, HepG2, 1% FBS, read-out: cytotoxicity HepG2 1% FBS), 31.4 ± 2 µg/mL (≈ 14.6 µM); in [1] (HepG2 cells, HepG2, 10% FBS, read-out: cytotoxicity HepG2 10% FBS), 96.1 ± 1.1 µg/mL (≈ 44.6 µM). The “hemolysis (%) at 300 μg/mL” value in the data set on human erythrocytes is recorded as 64.8 ± 3.5%. Besides, in data set [2], the “permeabilization concentration relative to MIC” value is on record as “lower concentration than their MIC”. Besides, the “permeabilisation of the E. coli cytoplasmic membrane at lethal concentrations” value in data set [3] is “permeabilise”. Moreover, the MIC amounted to 0.5 µg/mL (≈ 0.232 µM) against K. pneumoniae ATCC 13883; 0.25 µg/mL (≈ 0.116 µM) in the data set on A. baumannii ATCC 19606; 2 µg/mL (≈ 0.928 µM) in data set [6]; 0.25 µg/mL (≈ 0.116 µM) in data set [7]; 0.03 µg/mL (≈ 0.0139 µM) against B. subtilis ATCC 6051; 4 µg/mL (≈ 1.86 µM) in the data set on P. aeruginosa ATCC 27853. Further, the fraction unbound in data set [4] is 0.11. The molecule further came in with a hemolysis in [5] of 65%.
